Results: patent US10954252B1, “Inhibitors of human immunodeficiency virus replication” (ViiV HEALTHCARE UK (NO.5) LIMITED, priority 2017, dated 2021)

Assays:
[1] = system: recombinant NL4-3 virus (nef section replaced with Renilla luciferase gene) in MT-2 cells; assay: HIV cell culture assay (antiviral activity, luciferase readout); assay type: cell-based; conditions: MT-2 cells infected for 4-5 days with recombinant NL4-3 luciferase virus
Outline: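 Serially diluted compounds were present throughout a 4-5 day infection of MT-2 cells by recombinant NL4-3 whose nef region partly encodes Renilla luciferase. Antiviral activity was taken from live-cell luciferase signal, with the 50% effective concentration fitted by the exponential median effect equation.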

[2] = Compound cytotoxicity, XTT-based colorimetric assay; assay type: cell-based; conditions: human, uninfected MT2 cells
Outline: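 XTT colorimetric read-out on day 4 gave CC50 values, using MT2 cells left uninfected but otherwise handled as in the antiviral assay.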

| SMILES | EC50 ([1]; Renilla, NL43, Table 1) [nM] | CC50 at 4 days ([2]; Table 1, day 4, XTT) [nM] | EC50 ([1]; Renilla, NL43, Table 1a) [nM] | CC50 at 4 days ([2]; Table 1a, day 4, XTT) [nM] | EC50 ([1]; Table 1a) [nM] |
| --- | --- | --- | --- | --- | --- |
| Cn1nc(NS(C)(=O)=O)c2c(Cl)ccc(-n3c([C@H](Cc4cc(F)cc(F)c4)NC(=O)Cn4nc(C(F)F)c5c4C(F)(F)[C@@H]4C[C@H]54)nc4cc(C#N)ccc4c3=O)c21 (single isomer, unassigned) [Example 20] | 24 | > 10000 |  |  |  |
| Cn1nc(NS(C)(=O)=O)c2c(Cl)ccc(-n3c([C@H](Cc4cc(F)cc(F)c4)NC(=O)Cn4nc(C(F)F)c5c4C(F)(F)[C@@H]4C[C@H]54)nc4ccc(F)cc4c3=O)c21 (single isomer, unassigned) [Example 21] | 45 | > 2700 |  |  |  |
| Cn1nc(NS(C)(=O)=O)c2c(Cl)ccc(-n3c([C@H](Cc4cc(F)cc(F)c4)NC(=O)Cn4nc(C(F)F)c5c4C(F)(F)[C@@H]4C[C@H]54)nc4cccc(Cl)c4c3=O)c21 (single isomer, unassigned) [Example 22.2] | 130 | > 1000 |  |  |  |
| CS(=O)(=O)Nc1nn(CC(F)F)c2c(-n3c([C@H](Cc4cc(F)cc(F)c4)NC(=O)Cn4nc(C(F)F)c5c4C(F)(F)[C@@H]4C[C@H]54)nc4ncccc4c3=O)ccc(Cl)c12 (single isomer, unassigned) [Example 44.1] |  |  | 0.049 | > 10000 |  |
| Cn1nc(NS(C)(=O)=O)c2c(Cl)ccc(-n3c([C@H](Cc4cc(F)cc(F)c4)NC(=O)Cn4nc(C(F)F)c5c4CCC5)nc4ncccc4c3=O)c21 (single isomer, unassigned) [Example 46.1] |  |  | 10.3 | > 1000 |  |
| Cc1ccn(CC(=O)N[C@@H](Cc2cc(F)cc(F)c2)c2nc3ncccc3c(=O)n2-c2ccc(Cl)c3c(NS(C)(=O)=O)nn(C)c23)n1 (single isomer, unassigned) [Example 47.1] |  |  |  | > 1000 | 227 |
| Cn1nc(NS(C)(=O)=O)c2c(Cl)ccc(-n3c([C@H](Cc4cc(F)cc(F)c4)NC(=O)Cn4nc5c(c4C(F)F)CCC5)nc4ncccc4c3=O)c21 (single isomer, unassigned) [Example 48.2] |  |  | 0.16 | > 1000 |  |
| Cn1nc(NS(C)(=O)=O)c2c(Cl)ccc(-n3c([C@H](Cc4cc(F)cc(F)c4)NC(=O)Cc4n[nH]c5ccc(O)cc45)nc4ncccc4c3=O)c21 (single isomer, unassigned) [Example 49.1] |  |  | 93 | > 1000 |  |
| Cn1nc(NS(C)(=O)=O)c2c(Cl)ccc(-n3c([C@H](Cc4cc(F)cc(F)c4)NC(=O)Cn4ccc(N)n4)nc4ncccc4c3=O)c21 (single isomer, unassigned) [Example 50.2] |  |  | 32.1 | > 1000 |  |
| COc1ccc2c(=O)n(-c3ccc(Cl)c4c(NS(C)(=O)=O)nn(CC(F)F)c34)c(C(Cc3cc(F)cc(F)c3)NC(=O)Cn3nc(C(F)F)c4c3C(F)(F)[C@@H]3C[C@H]43)nc2n1 (single isomer, unassigned) [Example 54.1] |  |  | 43.4 | > 1000 |  |
| COc1ccc2c(=O)n(-c3ccc(Cl)c4c(NS(=O)(=O)C5CC5)nn(CC(F)F)c34)c([C@H](Cc3cc(F)cc(F)c3)NC(=O)Cn3ccc(C4CC4)n3)nc2n1 (single isomer, unassigned) [Example 57.2] |  |  | 0.33 | > 1000 |  |
| CCOc1ccc2c(=O)n(-c3ccc(Cl)c4c(NS(C)(=O)=O)nn(C)c34)c([C@H](Cc3cc(F)cc(F)c3)NC(=O)Cn3ccc(C4CC4)n3)nc2n1 (single isomer, unassigned) [Example 59.1] |  |  | 47 | > 1000 |  |
| CN(c1nn(C)c2c(-c3cc4c(ccn4C)nc3[C@H](Cc3cc(F)cc(F)c3)NC(=O)Cn3nc(C(F)F)c4c3C(F)(F)[C@@H]3C[C@H]43)ccc(Cl)c12)S(C)(=O)=O (single isomer, unassigned) [Example 64] |  |  | 4 | > 10000 |  |
| Cc1ccc(C)c2c(=O)n(-c3ccc(Cl)c4c(NS(C)(=O)=O)nn(C)c34)c([C@H](Cc3cc(F)cc(F)c3)NC(=O)Cn3nc(C(F)F)c4c3C(F)(F)[C@@H]3C[C@H]43)nc12 (single isomer, unassigned) [Example 68] |  |  | 4.69 | > 1000 |  |
| Cn1nc(NS(C)(=O)=O)c2cccc(-n3c(C(Cc4cc(F)cc(F)c4)NC(=O)Cn4nc(C(F)F)c5c4C(F)(F)[C@@H]4C[C@H]54)nc4ccccc4c3=O)c21 (single isomer, unassigned) [Example 69] |  |  | 78.3 | > 1000 |  |
| Cn1nc(NS(C)(=O)=O)c2c(Cl)ccc(-n3c([C@H](Cc4cc(F)cc(F)c4)NC(=O)Cn4nc(C(F)F)c5c4C(F)(F)[C@@H]4C[C@H]54)nc4c(F)cccc4c3=O)c21 (single isomer, unassigned) [Example 71] |  |  | 9.58 | > 1000 |  |
| Cn1nc(NS(C)(=O)=O)c2c(Cl)ccc(-n3c([C@H](Cc4cc(F)cc(F)c4)NC(=O)Cn4nc(C(F)F)c5c4C(F)(F)[C@@H]4C[C@H]54)nc4c(F)cc(F)cc4c3=O)c21 (single isomer, unassigned) [Example 74] |  |  | 0.0513 | > 1000 |  |

| SMILES | EC50 ([1]; Renilla, NL43, Table 1) [nM] | CC50 at 4 days ([2]; Table 1, day 4, XTT) [nM] | EC50 ([1]; Renilla, NL43, Table 1a) [nM] | CC50 at 4 days ([2]; Table 1a, day 4, XTT) [nM] | EC50 ([1]; Table 1a) [nM] |
| --- | --- | --- | --- | --- | --- |
| COc1ccc2c(=O)n(-c3ccc(Cl)c4c(NS(C)(=O)=O)nn(C)c34)c([C@H](Cc3cc(F)cc(F)c3)NC(=O)Cn3nc(C(F)F)c4c3C(F)(F)[C@@H]3C[C@H]43)nc2c1F (single isomer, unassigned) [Example 76] |  |  | 0.118 | > 1000 |  |
| COc1ccc2c(=O)n(-c3ccc(Cl)c4c(NS(C)(=O)=O)nn(C)c34)c([C@H](Cc3cc(F)cc(F)c3)NC(=O)Cn3ccc(C4CC4)n3)nc2c1 (single isomer, unassigned) [Example 78] |  |  | 0.478 | > 1000 |  |
| COc1ccc2c(=O)n(-c3cccc4c(NS(C)(=O)=O)nn(C)c34)c([C@H](Cc3cc(F)cc(F)c3)NC(=O)Cn3nc(C(F)F)c4c3C(F)(F)[C@@H]3C[C@H]43)nc2c1 (single isomer, unassigned) [Example 80] |  |  | 0.389 | > 1000 |  |
| Cn1nc(NS(C)(=O)=O)c2c(Cl)ccc(-c3cc4cc[nH]c4nc3C(Cc3cc(F)cc(F)c3)NC(=O)Cn3nc(C(F)F)c4c3C(F)(F)[C@@H]3C[C@H]43)c21 (single isomer, unassigned) [Example 83] |  |  |  | > 10000 | 1.02 |
| Cn1nc(NS(C)(=O)=O)c2c(Cl)ccc(-c3cc4cc[nH]c4nc3[C@H](Cc3cc(F)cc(F)c3)NC(=O)Cn3nc(C(F)F)c4c3C(F)(F)[C@@H]3C[C@H]43)c21 (single isomer, unassigned) [Example 84] |  |  | 0.94 | > 10000 |  |
| Cn1nc(NS(C)(=O)=O)c2c(Cl)ccc(-c3cc4cc[nH]c4nc3[C@@H](Cc3cc(F)cc(F)c3)NC(=O)Cn3nc(C(F)F)c4c3C(F)(F)[C@@H]3C[C@H]43)c21 (single isomer, unassigned) [Example 87] |  |  | 72.4 | > 10000 |  |
| Cn1nc(NS(C)(=O)=O)c2c(Cl)ccc(-c3cc4[nH]cc(Cl)c4nc3[C@H](Cc3cc(F)cc(F)c3)NC(=O)Cn3nc(C(F)F)c4c3C(F)(F)[C@@H]3C[C@H]43)c21 (single isomer, unassigned) [Example 89] |  |  | 0.66 | > 10000 |  |
| CS(=O)(=O)Nc1nn(CC(F)F)c2c(-c3cc4[nH]ncc4nc3[C@H](Cc3cc(F)cc(F)c3)NC(=O)Cn3nc(C(F)F)c4c3C(F)(F)[C@@H]3C[C@H]43)ccc(Cl)c12 (single isomer, unassigned) [Example 92] |  |  | 0.161 | > 10000 |  |
| CS(=O)(=O)Nc1nn(CC(F)(F)F)c2c(-c3cc4[nH]ncc4nc3[C@H](Cc3cc(F)cc(F)c3)NC(=O)Cn3nc(C(F)F)c4c3C(F)(F)[C@@H]3C[C@H]43)ccc(Cl)c12 (single isomer, unassigned) [Example 94] |  |  | 0.146 | > 1000 |  |
| Cc1cccc2c(=O)n(-c3ccc(Cl)c4c(NS(C)(=O)=O)nn(C)c34)c([C@H](Cc3cc(F)cc(F)c3)NC(=O)Cn3nc(C(F)F)c4c3C(F)(F)[C@@H]3C[C@H]43)nc12 (single isomer, unassigned) [Example 97] |  |  |  | > 1000 | 30.6 |
| Cn1nc(NS(C)(=O)=O)c2c(Cl)ccc(-n3c([C@H](Cc4cc(F)cc(F)c4)NC(=O)Cn4nc(C(F)F)c5c4CCC5)nc4c(F)cc(F)cc4c3=O)c21 (single isomer, unassigned) [Example 99] |  |  |  | > 1000 | 17.8 |
| Cn1nc(NS(C)(=O)=O)c2c(Cl)ccc(-n3c([C@H](Cc4cc(F)cc(F)c4)NC(=O)Cn4nc(C(F)F)c5c4C(F)(F)[C@@H]4C[C@H]54)nc4c(Cl)cccc4c3=O)c21 (single isomer, unassigned) [Example 101] |  |  |  | > 1000 | 335 |
| Cn1nc(NS(C)(=O)=O)c2c(Cl)ccc(-n3c([C@H](Cc4cc(F)cc(F)c4)NC(=O)Cn4nc(C(F)F)c5c4C(F)(F)[C@@H]4C[C@H]54)nc4c(C(N)=O)cccc4c3=O)c21 (single isomer, unassigned) [Example 106] |  |  | 23.8 | > 1000 |  |
| Cc1c(F)ccc2c(=O)n(-c3ccc(Cl)c4c(NS(C)(=O)=O)nn(C)c34)c([C@H](Cc3cc(F)cc(F)c3)NC(=O)Cn3nc(C(F)F)c4c3C(F)(F)[C@@H]3C[C@H]43)nc12 (single isomer, unassigned) [Example 107] |  |  |  | > 1000 | 27.3 |
| COc1c(F)ccc2c(=O)n(-c3ccc(Cl)c4c(NS(C)(=O)=O)nn(C)c34)c([C@H](Cc3cc(F)cc(F)c3)NC(=O)Cn3nc(C(F)F)c4c3C(F)(F)[C@@H]3C[C@H]43)nc12 (single isomer, unassigned) [Example 109] |  |  |  | > 1000 | 118 |
| COc1c(F)ccc2c(=O)n(-c3ccc(Cl)c4c(NS(C)(=O)=O)nn(C)c34)c([C@H](Cc3cc(F)cc(F)c3)NC(=O)Cn3ccc(C4CC4)n3)nc12 (single isomer, unassigned) [Example 111] |  |  |  | > 1000 | 92.6 |
